Data from patent US20230134760A1, “CAR AND NRF2 DUAL ACTIVATOR AGENTS FOR CYCLOPHOSPHAMIDE-BASED AND DOXORUBICIN-BASED TREATMENTS OF CANCER” (priority 2020, published 2023).

Legend:
Assay type in all cases: cell-based
HO-1 = HO-1 expression in MDA-MB-231 cells; settings: MDA-MB-231, 10 μM, 24 hours
Method: Immortalized triple negative breast cancer cell lines MDA-MB-231 and BT549 were obtained from ATCC (Rockville, Md.). Additionally, the h9c2 cell line was purchased from ATCC (Rockville, Md.). […] Human iPSC-derived cardiomyocytes were maintained in Mtesr plus and supplemented according to protocol. These cells were treated for 2 hrs or an overnight as indicated. Following a 2 hr pretreatment, cells were co-treated with DOX at indicated concentrations for 6 or 22 hours. Following the overnight treatments, RNA or protein was isolated. HPH were seeded in collagen-coated 24 well plates and pretreated for 24 hrs. BT549 were seeded on inverted coverslips. After a 24 hr pretreatment, hepatocytes were co-administered as indicated and coverslips were inserted. The cell lines were used for less than 60 passages. After 24 h treatment, HPH, BT549, MDA-MB-231, and H9c2 cells were washed and a phenol-chloroform extraction was used to isolate total RNA with the TRIzol reagent (ThermoFisher, Rockford, Ill.). Reverse transcription was performed on extracted RNA (1 μg) to produce cDNA using the High Capacity cDNA Archive kit according to manufacturer's instructions (Applied Biosystems, Foster, Calif.). […] Quantification of expression changes was done by the 2^ΔΔCt method, normalizing to GAPDH as the housekeeping gene and determining the fold change compared to control values (n=3). […]

MDA-MB-231 cells [1] = assay: Cell viability assay, DOX-induced toxicity in MDA-MB-231 cells; settings: MDA-MB-231, DOX 2.5 μM
Method: Immortalized triple negative breast cancer cell lines MDA-MB-231 and BT549 were obtained from ATCC (Rockville, Md.). Additionally, the h9c2 cell line was purchased from ATCC (Rockville, Md.). […] Human iPSC-derived cardiomyocytes were maintained in Mtesr plus and supplemented according to protocol. These cells were treated for 2 hrs or an overnight as indicated. Following a 2 hr pretreatment, cells were co-treated with DOX at indicated concentrations for 6 or 22 hours. Following the overnight treatments, RNA or protein was isolated. HPH were seeded in collagen-coated 24 well plates and pretreated for 24 hrs. BT549 were seeded on inverted coverslips. After a 24 hr pretreatment, hepatocytes were co-administered as indicated and coverslips were inserted. The cell lines were used for less than 60 passages. H9c2 cells were seeded 0.8×10^5 in 24-well plates. […] A Cell Counting Kit-8 (Enzo) assay was carried out. Cell viability was described as a percent of vehicle control (0.1% DMSO).

Nrf2 = Nrf2 luciferase reporter assay in HepG2 cells (ARE); settings: HepG2, screening, FIG. 37b
Method: HepG2 cells were cultured in 24-well plates (1×10^5 cells/well) and transfected with either a hCAR1+A expression vector (30 ng/well), a CYP2B6-2.2k reporter (60 ng/well) reporter, and pRL-TK (10 ng/well) or a ARE expression vector using X-tremeGENE 9 DNA Transfection Reagent (Sigma-Aldrich). After an overnight transfection, cells were treated with a vehicle control (0.1% DMSO), RIF (10 μM), DL7076 (1 μM, 5 μM, and 10 μM) for 24 hours. Cell lysates were assayed for luciferase activity and normalized against the activity of the Renilla luciferase using a Dual-Luciferase Kit (Promega).

hCAR or Nrf2 = assay: all curve and EC50 curve of selected compounds (FIG. 22-35); parameters: key to Emax: fold activation; firefly luciferase normalized to Renilla; settings: figure legend values
Method: Cell lysates were assayed for luciferase activity and normalized against the activity of the Renilla luciferase using a Dual-Luciferase Kit (Promega). […] Compound 2, DL7076, was selected for further evaluation based on its effects in activating hCAR and Nrf2 using the HepG2 cell reporter assay (FIGS. 37a-37c).

MDA-MB-231 cells [2] = assay: Oxidative stress imaging (DFDA) in MDA-MB-231 cells; settings: MDA-MB-231, DL7076 5 μM + DOX

O=C(NCCN=C=S)c1c(-c2ccc3ccccc3c2)nc2sccn12 [DL7076, N-(2-Isothiocyanatoethyl)-6-(naphthalen-2-yl)imidazo[2,1-b]thiazole-5-carboxamide]
HO-1 induction (HO-1): 1.4 fold
reversal of DOX-induced toxicity (viability) (MDA-MB-231 cells [1]): this efficient reversal was not shown
Nrf2 luciferase activity (potency and efficacy) (Nrf2): higher potency and efficacy
Emax (hCAR or Nrf2): 2.5
EC50 (hCAR or Nrf2; read-out: EC50): 3.9 µM
ROS with cotreatment (MDA-MB-231 cells [2]): significant ROS without reduction
